{"source": "paper PMC3006138", "about": "“Fexinidazole – A New Oral Nitroimidazole Drug Candidate Entering Clinical Development for the Treatment of Sleeping Sickness” (PLoS Neglected Tropical Diseases, 2010)", "key": {"[1]": {"assay": "Hepatocyte intrinsic clearance and metabolite profile", "assay_type": "in vitro ADME, human", "conditions": "human", "method": "Fexinidazole was incubated with cryopreserved hepatocytes from male CD-1 mice, male Sprague Dawley rats, male beagle dogs, male cynomolgus monkeys, and from pooled white or African-American human donor samples (purchased commercially), at concentrations of 1 µM and 10 µM. […] The incubated samples were analyzed by LC-MS after extraction into acetonitrile.\nFexinidazole sulfoxide, lot 1106-I-0170, 99.3% purity, and fexinidazole sulfone, lot 1106-I-0171, 99.9% purity, were provided by the Sponsor.\nCryopreserved hepatocytes of five single donors, lots EHI, REL, KSE […]\nZIJ and MRS, were purchased from In Vitro Technologies Inc (Baltimore, Maryland, USA).\nThe certificates of analysis are reported in Appendix 1.\nReagents and solvents were of analytical grade and obtained from Sigma-Aldrich (St. Louis, […]\n7.5. In Vitro Incubations\nOn the day of the experiment a 10 mM stock solution of fexinidazole in DMSO was prepared and, within 3 hours, aliquots of this freshly prepared solution, after suitable dilution, were added to the incubation matrix, to reach fexinidazole final concentrations of 1 and 10 µM. The final percentage of DMSO was 0.01% in the incubation samples for the […]\nThe cryopreserved hepatocytes were thawed according to the supplier’s procedure and the number of viable cells was determined using the Trypan Blue exclusion method. Viabilities were 92% for lot EHI, 89% for lot REL, 82% for lot KSE, 86% for lot ZIJ and 86% for lot MRS in the intrinsic clearance study. In the metabolite profile study viabilities were 91% for lot EHI, 90% for lot REL, 85% for lot KSE, 84% for lot ZIJ and 87% for lot MRS.\nAfterwards, the same amount of viable cells for each donor were pooled and used for the incubations of fexinidazole.\n7.5.1. Intrinsic Clearance Study […]\nµM with pooled human hepatocytes (1 million cells/mL) in a final incubation volume of 1 mL Leibovitz L-15 medium, at 37°C. Incubations were performed in duplicate in a 48-well plate under shaking. Sampling was performed using an automatic liquid handling system (Multiprobe II EX, Packard). At 0, 1, 5, 10, 15, 20, 30, 60 and 120 minutes, 50 µL aliquots of the incubates were taken, then 80 µL of ice-cold acetonitrile and 20 µL of 1 µM warfarin in acetonitrile (internal standard) were added, and samples centrifuged at 2000 rpm for 20 min. The supernatant was analyzed by LC-MS/MS. […]\nThe chemical stability of fexinidazole was checked by incubating the compound at 37°C in the medium alone at t = 0 and 120 minutes.\nFor the determination of phase I and phase II activities of hepatocytes, 7-ethoxycoumarin (7-ETC) 1 µM, and 7-hydroxycoumarin (7-HC) 30 µM were used as positive controls and incubated under the same conditions as fexinidazole. Aliquots of incubates were taken at 0, 1, 5, 10, 15, 20, 30, 60 and 120 minutes and processed as fexinidazole samples.\n7.5.2. Metabolite Profile Study\nFor metabolite profiling, fexinidazole was incubated at a concentration of 10 µM with pooled human hepatocytes (1 million cells/mL) in a final incubation volume of 2 mL Leibovitz L-15 medium, at 37°C. Aliquots of the incubation samples were taken at t = 0, 30 and 120 minutes; the metabolism was stopped by the addition of an equal volume of cold acetonitrile and the samples centrifuged at 1100 rpm for 20 min. The supernatant was stored at -20°C until analysis. Control incubations were performed with the compound in the medium alone for 120 minutes.\n7.6. Analysis of the Samples of Intrinsic Clearance Study\nThe analysis of the samples for intrinsic clearance determination was performed by an LC-MS/MS method, using the following conditions:\nHPLC Equipment and Conditions\nHPLC system 1100 binary pump (Agilent, Palo Alto, USA)\nAutosampler 2777 (Waters)\nAnalytical column Guard Column SB-C8 4.6 x 12.5 mm, 5 µm (Zorbax)\nColumn temperature ambient\nMobile phase A 10 mM ammonium formate pH 4.0: acetonitrile (95:5, v:v)\nMobile phase B 10 mM ammonium formate pH 4.0: acetonitrile (5:95, v:v) […]\nGradient conditions Step Total time (min) flow (µL/min) %A % B […]"}, "in vitro": {"assay": "in vitro", "conditions": "dog", "method": "(§1) Caco-2 [36] or MDR1-MDCK (Madin Darby canine kidney cells transfected with the human multidrug resistance MDR1 gene) cell monolayers were grown to confluence on collagen-coated, microporous, polycarbonate membranes in 12-well microtitre plates. The buffer for the donor chamber was Hanks balanced salt solution with 10 mM HEPES and 15 mM glucose at pH 7.4. The buffer in the receiver chamber contained the same with the addition of 1% bovine serum albumin (BSA). The test article was added at 5 µM in the assay buffer. […] After 2 h, duplicate aliquots were taken from the donor and receiver chambers and assayed via LC/MS. The apparent permeability and recovery were calculated using standard methods.\n(§2) The objective of this study was to determine the bi-directional MDR1-MDCK permeability and efflux limited absor ption potential of thr ee test compounds. […]\n(§3) 4. Th e buff er in th e r ecei ver cha m ber a l so con t a in ed 1% Bovi n e Ser um Al bumin ( BSA) . Th e test compound dosing concentrations were 5 µM in th e a ssay bu f fer . […] After two hours, a l iquot s wer e t a ken fr om th e r ecei ver an d don or cha m ber s. E a ch det erm ina ti on wa s per for m ed in dupl i cat e. Th e Lucifer Yellow flux was also measur ed for each mon olayer after bein g subjected to th e test compoun ds to en sur e n o damage was in flicted to th e cell mon olayer s durin g th e flux per iod. All samples wer e assayed by LC/MS/MS usin g electrospray ionization. Analytical conditions are outlined in Attachment I. The apparent permeability, Papp, and per cen t r ecover y wer e calculated as follows: […]\n(§4) dCr /dt is th e slope of th e cumulative con cen tration in th e r eceiver compartment ver sus time in µM s -1. […]"}, "[2]": {"tested_on": "MDR1 (human, transfected)", "assay": "in vitro", "conditions": "dog, MDCK-MDR1, pH 7.4", "method": "as §1, §2, §3, §4"}, "[3]": {"tested_on": "MDR1-MDCK cell monolayers", "assay": "in vitro", "conditions": "MDCK-MDR1", "method": "as §1, §2, §3, §4"}, "human MDR1": {"tested_on": "human MDR1", "assay": "in vitro", "conditions": "dog, MDCK-MDR1, pH 7.4", "method": "as §1, §2, §3, §4"}, "[4]": {"design": "method as in study 0339-2007", "conditions": "7-day repeated toxicity study, top dose 2000 mg/kg, ref study 0339-2007; cited from earlier work"}}, "data": [{"smiles": "CSc1ccc(OCc2ncc([N+](=O)[O-])n2C)cc1", "note": "[Fexinidazole, 1-methyl-2-((p-(methylthio)phenoxy)methyl)-5-nitroimidazole]", "values": [{"measurement": "half-life at 1 µM", "setting": "[1]", "result": 6.5, "unit": "min"}, {"measurement": "CLint scaled at 1 µM", "setting": "[1]; read-out: CLint in vitro", "result": 257, "unit": "mL/min/kg"}, {"measurement": "hepatocyte CLint at 1 µM", "setting": "[1]; read-out: CLint in vitro", "result": 107, "unit": "µL/min/1e6 cells"}, {"measurement": "Papp A→B at 2 h, 5 µM", "setting": "in vitro; MDCK-MDR1, pH 7.4", "result": 60.6, "unit": "×10⁻⁶ cm/s"}, {"measurement": "recovery at 2 h, 5 µM", "setting": "in vitro; MDCK-MDR1, pH 7.4, Percent Recovery A→B", "result": 71, "unit": "%"}, {"measurement": "recovery at 2 h, 5 µM", "setting": "in vitro; MDCK-MDR1, pH 7.4, Percent Recovery B→A", "result": 77, "unit": "%"}, {"measurement": "efflux ratio at 2 h, 5 µM", "setting": "[2]", "result": 0.9}, {"measurement": "Papp B-A / Papp A-B Ratio", "setting": "[3]", "result": "no significant efflux"}, {"measurement": "Papp B→A at 2 h, 5 µM", "setting": "human MDR1", "result": 55.1, "unit": "×10⁻⁶ cm/s"}, {"measurement": "tolerability", "setting": "[4]", "result": "well tolerated"}]}]}
